Test [1] deals with anesthetized dog with propranolol-induced myocardial depression. Nature of the test: propranolol-induced acute heart failure in the anesthetized dog. The test is classed as in vivo. The note with it: B 6 μg/kg/min infusion, A 0.01 to 3.0 mg/kg IV bolus.
Protocol: CONT indicates the control before propanolol induced cardiac depression, DEP indicates a stable propanolol depression, and TD indicates administration of the initial test drug, either saline or (R)-N-(2,3-dihydro-1H-inden-1-yl)adenosine (B).
Adult mongrel dogs of either sex are anesthetized with sodium pentobarbital (32 mg/kg) IV, trachea intubated, and ventilated artificially. Anesthesia is maintained by a continuous infusion of sodium pentobarbital (3.0 mg/kg/hr) through a femoral vein cannula. Three additional venous cannulae are used for (1) propranolol infusion, (2) (R)-N-(2,3-dihydro-1H-inden-1-yl)adenosine or saline infusion and (3) bolus injections of either 4,5-dihydro-6-[4-(1H-imidazol-1-yl)phenyl]-3(2H)pyridazinone, hydrochloride salt or saline. Systemic arterial blood pressure, left ventricular contractility (dP/dt), and heart rate are recorded continuously. Cardiac output, measured by thermodilution, is recorded before myocardial depression, when stable myocardial depression is achieved (approximately 30 minutes), and ten minutes following each bolus dose. Following surgical preparation, 30 minutes are allowed for hemodynamic stabilization prior to induction of the myocardial depression. […]
The subject of test [2] is isolated-Langendorff perfused rat hearts. Nature of the test: isolated-Langendorff perfused rat hearts. The note with it: 10^-8 -3×10^-6 M.
A further test concerns α1-adrenergic receptors. Nature of the test: α1-adrenergic receptor binding.
The target in another test is T1, A1 adenosine receptor (Rattus norvegicus, UniProt P25099).
T1 construct: isolated rat brain membranes; from tissue; host or cells: rat brain membranes
T1 sequence (P25099 1-326): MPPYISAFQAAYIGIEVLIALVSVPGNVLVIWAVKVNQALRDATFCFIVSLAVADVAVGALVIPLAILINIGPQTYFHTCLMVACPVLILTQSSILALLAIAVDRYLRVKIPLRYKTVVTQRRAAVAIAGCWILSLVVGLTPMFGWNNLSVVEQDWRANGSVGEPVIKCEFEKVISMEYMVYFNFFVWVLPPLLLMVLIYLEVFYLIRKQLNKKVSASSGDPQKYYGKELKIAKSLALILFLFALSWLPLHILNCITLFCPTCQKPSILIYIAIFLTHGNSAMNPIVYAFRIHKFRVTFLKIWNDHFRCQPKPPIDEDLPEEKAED
Nature of the test: A1 adenosine receptor binding, isolated rat brain membranes.

Test [3] concerns anesthetized-vagotomized normotensive rats. Nature of the test: hemodynamics in anesthetized-vagotomized normotensive rats. The class given is in vivo, rat. The conditions noted are these: IV 3 to 300 mg/kg. How it is done:
In this procedure the (R)-N-(2,3-dihydro-1H-inden-1-yl)adenosine (B) is administered intravenously (IV) at 3 to 300 mg/kg in anesthetized-vagotomized normotensive rats.

The test system of test [4] is α-aminobuteric acid receptors. Nature of the test: α-aminobuteric acid receptor binding.
For the next test, the system named is β1-adrenergic receptors. Nature of the test: β1-adrenergic receptor binding.
A further test concerns α2-adrenergic receptors. Nature of the test: α2-adrenergic receptor binding.
A further test has as its system dopaminergic receptors. Nature of the test: dopaminergic receptor binding.
A further test has as its system β2-adrenergic receptors. Nature of the test: β2-adrenergic receptor binding.
Another test relates to serotonergic receptors. Nature of the test: serotonergic receptor binding.
For test [5], the system named is anesthetized normotensive dogs. Nature of the test: hemodynamics in anesthetized normotensive dogs. The class given is in vivo, dog. The conditions noted are these: IV. How it is done: Such administration is by a method essentially described as follows:
Mongrel dogs of either sex are anesthetized with sodium pentobarbital (30 mg/kg IV) and mechanically ventilated with room air. The left and right femoral veins are cannulated for injection of test compound and maintenance anesthesia (3.5 mg/kg/hr), respectively. Cardiac output is measured by a thermodilution catheter positioned in the pulmonary artery. Left ventricular contractility (dP/dt) is measured by a Millar Mikro-Tip catheter pressure transducer positioned in the left ventricular cavity via the left carotid artery, heart rate, and lead II electrocardiogram are recorded continuously. Each animal is allowed 30 minutes to stabilize and hemodynamic control pressures, cardiac output, and electrocardiographic measurements are recorded. Compounds are dissolved in saline if possible and pH adjusted. If another solvent is required, vehicle control experiments are performed. Test compounds are administered as rising bolus doses usually starting at 0.1 midtherapeutic and increasing in half log doses to 30 X midtherapeutic. All cardiovascular measurements are repeated after each dose.
Agent induced effects on any of the cardiovascular measurements are recorded.

A further test has as its system muscarinic receptors. Nature of the test: muscarinic receptor binding.
[6] abbreviates: combination compared with A alone at comparable doses.

As usually defined, the IC50 is the concentration at which inhibition is half-maximal. A lower IC50 goes with inhibition by little substance.

`OC[C@H]1O[C@@H](n2cnc3c(N[C@@H]4CCc5ccccc54)ncnc32)[C@H](O)[C@@H]1O` [B, (R)-N-(2,3-dihydro-1H-inden-1-yl)adenosine]: the “pressure volume relationship of the left ventricle (LVEDP vs stroke volume)” value in [1] is listed as “did not increase dP/dt, cardiac output, or affect the pressure volume relationship”. For the same molecule, in test [1] (setting [6]), the cardiac output result was “did not increase” and the “myocardial contractility (dP/dt of left ventricular pressure)” value is “did not increase”. Also, the heart rate entry in test [2] was “decreases”. Moreover, the coronary flow entry in [2] (isolated perfused rat heart) is given as “Concentration-dependent increases”. Moreover, in the test with α1-adrenergic receptors, the “binding to α1-adrenergic receptors” value is “does not significantly bind”. Also, the IC50 on A1 adenosine receptor turned out to be 30 nM. In [3], the heart rate entry was “dose-related decreases” and the “mean arterial blood pressure” value is “dose-related decreases”. Further, in test [4], the “binding to α-aminobuteric acid receptors” value is recorded as “does not significantly bind”. In addition, the “binding to β1-adrenergic receptors” value with β1-adrenergic receptors is listed as “does not significantly bind”. Also, in the test with α2-adrenergic receptors, the “binding to α2-adrenergic receptors” value is on record as “does not significantly bind”. In the test on dopaminergic receptors, the “binding to dopaminergic receptors” value is given as “does not significantly bind”. Also, the “binding to β2-adrenergic receptors” value in the test with β2-adrenergic receptors is reported as “does not significantly bind”. Besides, the “binding to serotonergic receptors” value with serotonergic receptors was “does not significantly bind”. In test [5], the “calculated total peripheral resistance” value is recorded as “dose-related decreases”, the heart rate entry is listed as “dose-related decreases” and the “mean arterial blood pressure” value was “dose-related decreases”. Moreover, in the test on muscarinic receptors, the “binding to muscarinic receptors” value is recorded as “does not significantly bind”.

Values taken from patent publication US4693996A, “Method of treating heart failure and medicaments therefor” (Warner-Lambert Company, priority 1985, dated 1987).
